Key:
[1] = molecular target: T1, Human KLKB1 protein (Homo sapiens, UniProt P03952); assay: KLKB1 kallikrein protease inhibition assay (chromogenic substrate S-2302); assay type: biochemical; settings: 3 nM KLKB1, 250 μM S-2302, 10 min pre-incubation, RT, read at 405 nm
T1 construct: purchased Enzyme Research Labs
Method: The KLKB1 kallikrein activity reported herein (e.g., Table A) was obtained as follows. Human KLKB1 protein was obtained from Enzyme Research Labs. The chromogenic substrate S-2302 was obtained from DiaPharma. KLKB1 was assayed in buffer containing 0.05 M Tris (pH 7.4), 0.01 M NaCl and 0.2% w/v PEG-8000. The final concentration of enzyme used was 3 nM KLKB1. The final concentration of substrate used was 250 μM S-2302 for KLKB1. All assays were performed in 96-well microtiter plates at room temperature (RT). […] The plate was read at 10 minutes after substrate addition. The IC50 was calculated by plotting the percent (%) inhibition against compound concentration and fitting the data to a constrained four parameter sigmoidal curve, as known in the art.

[2] = molecular target: T2, Human thrombin (Homo sapiens, UniProt P00734); assay: thrombin protease inhibition assay (chromogenic substrate S-2238); assay type: biochemical; settings: 3 nM thrombin, 125 μM S-2238, 10 min pre-incubation, RT, read at 405 nm
T2 construct: Thrombin (fIIa, the active form of prothrombin) is another serine protease; purchased Haematologic Technologies Inc
Method: The thrombin activity reported herein (e.g., Table A) was obtained as follows. […] Thrombin was assayed in buffer containing 0.05 M Tris (pH 7.4), 0.015 M NaCl and 0.01% PEG-8000. The final concentration of enzyme used was 3 nM thrombin. […] All assays were performed in 96-well microtiter plates at room temperature (RT). […] Inhibitor IC50 values were determined by adding test compound as ten point, three-fold serial dilutions in buffer solution, as known in the art. The plate was read at 10 minutes after substrate addition. The IC50 was calculated by plotting the percent (%) inhibition against compound concentration and fitting the data to a constrained four parameter sigmoidal curve, as known in the art.

T1 sequence (P03952 391-638 limits assumed): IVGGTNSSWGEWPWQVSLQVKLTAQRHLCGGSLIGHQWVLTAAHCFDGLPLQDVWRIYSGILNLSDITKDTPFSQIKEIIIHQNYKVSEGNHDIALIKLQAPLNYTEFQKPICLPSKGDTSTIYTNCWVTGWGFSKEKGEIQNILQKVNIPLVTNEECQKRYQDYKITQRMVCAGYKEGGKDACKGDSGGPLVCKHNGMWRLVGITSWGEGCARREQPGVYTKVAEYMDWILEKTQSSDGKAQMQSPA
T1 sequence (P03952 20-390 partner limits assumed): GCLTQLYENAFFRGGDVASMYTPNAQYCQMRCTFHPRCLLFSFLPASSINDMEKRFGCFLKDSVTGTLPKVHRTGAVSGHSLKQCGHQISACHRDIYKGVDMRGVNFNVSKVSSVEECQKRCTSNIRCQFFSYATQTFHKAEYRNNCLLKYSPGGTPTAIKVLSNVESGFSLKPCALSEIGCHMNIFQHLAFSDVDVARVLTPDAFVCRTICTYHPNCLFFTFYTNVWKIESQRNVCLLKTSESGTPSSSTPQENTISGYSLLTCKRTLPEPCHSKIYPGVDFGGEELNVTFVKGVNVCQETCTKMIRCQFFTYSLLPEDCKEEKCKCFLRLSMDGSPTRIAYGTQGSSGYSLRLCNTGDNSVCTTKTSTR

SMILES	IC50 [1] [nM]	IC50 [2] [nM]
O=c1ccc(-c2cc(NCc3ccc(Cl)s3)[nH]n2)c[nH]1 [Entry 38, 5-(5-[(5-chlorothiophen-2-yl)methyl]amino-1H-pyrazol-3-yl)-1,2-dihydropyridin-2-one]	> 100000	> 100000
Cc1c[nH]c(=O)c(-c2cc(NCc3ccc(Cl)s3)n(C(=O)c3ccoc3)n2)c1 [Entry 4, 3-(5-[(5-chlorothiophen-2-yl)methyl]amino-1-(furan-3-carbonyl)-1H-pyrazol-3-yl)-5-methyl-1,2-dihydropyridin-2-one]	100 to 1000	< 100
COc1ccccc1C(=O)n1nc(-c2cc(-c3cccnc3)c[nH]c2=O)cc1NCc1ccc(Cl)s1 [Entry 3, 3-(5-[(5-chlorothiophen-2-yl)methyl]amino-1-(2-methoxybenzoyl)-1H-pyrazol-3-yl)-5-(pyridin-3-yl)-1,2-dihydropyridin-2-one]	100 to 1000	100 to 1000
COCCn1ccc(-c2cc(NCc3ccc(Cl)s3)n(C(=O)c3ccoc3)n2)cc1=O [Entry 17, 4-(5-[(5-chlorothiophen-2-yl)methyl]amino-1-(furan-3-carbonyl)-1H-pyrazol-3-yl)-1-(2-methoxyethyl)-1,2-dihydropyridin-2-one]	1000 to 10000	< 100
O=C(c1ccsc1)n1nc(-c2ccn(CCN3CCOCC3)c(=O)c2)cc1NCc1ccc(Cl)s1 [Entry 27, 4-(5-[(5-chlorothiophen-2-yl)methyl]amino-1-(thiophene-3-carbonyl)-1H-pyrazol-3-yl)-1-[2-(morpholin-4-yl)ethyl]-1,2-dihydropyridin-2-one]	100 to 1000	< 100
O=C(c1ccsc1)n1nc(-c2ccc(=O)[nH]c2)cc1NCc1ccc(Cl)s1 [Entry 37, 5-(5-[(5-chlorothiophen-2-yl)methyl]amino-1-(thiophene-3-carbonyl)-1H-pyrazol-3-yl)-1,2-dihydropyridin-2-one]	1000 to 10000	100 to 1000
O=C(c1ccco1)n1nc(-c2cc(-c3cccnc3)[nH]c(=O)c2)cc1NCc1ccc(Cl)s1 [Entry 15, 4-(5-[(5-chlorothiophen-2-yl)methyl]amino-1-(furan-2-carbonyl)-1H-pyrazol-3-yl)-6-(pyridin-3-yl)-1,2-dihydropyridin-2-one]	> 100000	1000 to 10000
O=C(c1ccoc1)n1nc(-c2ccn(Cc3cccnc3)c(=O)c2)cc1NCc1ccc(Cl)s1 [Entry 19, 4-(5-[(5-chlorothiophen-2-yl)methyl]amino-1-(furan-3-carbonyl)-1H-pyrazol-3-yl)-1-(pyridin-3-ylmethyl)-1,2-dihydropyridin-2-one]	< 100	< 100
CC(C)(C)C(=O)n1nc(-c2cc(Br)cn(CC(=O)N3CCOCC3)c2=O)cc1NCc1ccc(Cl)s1 [Entry 40, 5-bromo-3-(5-[(5-chlorothiophen-2-yl)methyl]amino-1-(2,2-dimethylpropanoyl)-1H-pyrazol-3-yl)-1-[2-(morpholin-4-yl)-2-oxoethyl]-1,2-dihydropyridin-2-one]	1000 to 10000	< 100
COCCn1ccc(-c2cc(NCc3ccc(Cl)s3)n(C(=O)c3ccsc3)n2)cc1=O [Entry 23, 4-(5-[(5-chlorothiophen-2-yl)methyl]amino-1-(thiophene-3-carbonyl)-1H-pyrazol-3-yl)-1-(2-methoxyethyl)-1,2-dihydropyridin-2-one]	100 to 1000	< 100
O=c1[nH]cc(-c2cc(NCc3ccc(Cl)s3)[nH]n2)cc1Br [Entry 6, 3-bromo-5-(5-[(5-chlorothiophen-2-yl)methyl]amino-1H-pyrazol-3-yl)-1,2-dihydropyridin-2-one]	> 100000	> 100000
O=C(c1ccsc1)n1nc(-c2ccn(Cc3cccnc3)c(=O)c2)cc1NCc1ccc(Cl)s1 [Entry 25, 4-(5-[(5-chlorothiophen-2-yl)methyl]amino-1-(thiophene-3-carbonyl)-1H-pyrazol-3-yl)-1-(pyridin-3-ylmethyl)-1,2-dihydropyridin-2-one]	< 100	< 100
O=c1cccc(-c2cc(NCc3ccc(Cl)s3)[nH]n2)[nH]1 [Entry 47, 6-(5-[(5-chlorothiophen-2-yl)methyl]amino-1H-pyrazol-3-yl)-1,2-dihydropyridin-2-one]	> 100000	> 100000
O=C(c1ccsc1)n1nc(-c2cc(-c3ccccc3)[nH]c(=O)c2)cc1NCc1ccc(Cl)s1 [Entry 28, 4-(5-[(5-chlorothiophen-2-yl)methyl]amino-1-(thiophene-3-carbonyl)-1H-pyrazol-3-yl)-6-phenyl-1,2-dihydropyridin-2-one]	> 100000	> 100000
CC(C)(C)C(=O)n1nc(-c2cc(N3CCOCC3)[nH]c(=O)c2)cc1NCc1ccc(Cl)s1 [Entry 13, 4-(5-[(5-chlorothiophen-2-yl)methyl]amino-1-(2,2-dimethylpropanoyl)-1H-pyrazol-3-yl)-6-(morpholin-4-yl)-1,2-dihydropyridin-2-one]	> 100000	1000 to 10000
O=C(Cn1ccc(-c2cc(NCc3ccc(Cl)s3)n(C(=O)c3ccsc3)n2)cc1=O)N1CCOCC1 [Entry 26, 4-(5-[(5-chlorothiophen-2-yl)methyl]amino-1-(thiophene-3-carbonyl)-1H-pyrazol-3-yl)-1-[2-(morpholin-4-yl)-2-oxoethyl]-1,2-dihydropyridin-2-one]	1000 to 10000	100 to 1000
CC(C)(C)C(=O)n1nc(-c2ccn(CC(=O)N3CCOCC3)c(=O)c2)cc1NCc1ccc(Cl)s1 [Entry 12, 4-(5-[(5-chlorothiophen-2-yl)methyl]amino-1-(2,2-dimethylpropanoyl)-1H-pyrazol-3-yl)-1-[2-(morpholin-4-yl)-2-oxoethyl]-1,2-dihydropyridin-2-one]	10000 to 100000	

The next lines start with the values.

IC50 [1] [nM]	IC50 [2] [nM]	SMILES
10000 to 100000		CC(C)(C)C(=O)n1nc(-c2ccc(=O)[nH]c2)cc1NCc1ccc(Cl)s1 [Entry 31, 5-(5-[(5-chlorothiophen-2-yl)methyl]amino-1-(2,2-dimethylpropanoyl)-1H-pyrazol-3-yl)-1,2-dihydropyridin-2-one]
10000 to 100000	1000 to 10000	CC(C)(C)C(=O)n1nc(-c2c[nH]c(=O)c(-c3ccccc3)c2)cc1NCc1ccc(Cl)s1 [Entry 35, 5-(5-[(5-chlorothiophen-2-yl)methyl]amino-1-(2,2-dimethylpropanoyl)-1H-pyrazol-3-yl)-3-phenyl-1,2-dihydropyridin-2-one]
1000 to 10000	< 100	COCCn1ccc(-c2cc(NCc3ccc(Cl)s3)n(C(=O)C(C)(C)C)n2)cc1=O [Entry 9, 4-(5-[(5-chlorothiophen-2-yl)methyl]amino-1-(2,2-dimethylpropanoyl)-1H-pyrazol-3-yl)-1-(2-methoxyethyl)-1,2-dihydropyridin-2-one]
100 to 1000	< 100	CC(C)(C)C(=O)n1nc(-c2ccn(Cc3cccnc3)c(=O)c2)cc1NCc1ccc(Cl)s1 [Entry 11, 4-(5-[(5-chlorothiophen-2-yl)methyl]amino-1-(2,2-dimethylpropanoyl)-1H-pyrazol-3-yl)-1-(pyridin-3-ylmethyl)-1,2-dihydropyridin-2-one]
10000 to 100000	< 100	CC(C)(C)C(=O)n1nc(-c2cc(Br)c[nH]c2=O)cc1NCc1ccc(Cl)s1 [Entry 39, 5-bromo-3-(5-[(5-chlorothiophen-2-yl)methyl]amino-1-(2,2-dimethylpropanoyl)-1H-pyrazol-3-yl)-1,2-dihydropyridin-2-one]
> 100000		CC(C)(C)C(=O)n1nc(-c2cccc(=O)n2Cc2ccccn2)cc1NCc1ccc(Cl)s1 [Entry 44, 6-(5-[(5-chlorothiophen-2-yl)methyl]amino-1-(2,2-dimethylpropanoyl)-1H-pyrazol-3-yl)-1-(pyridin-2-ylmethyl)-1,2-dihydropyridin-2-one]
1000 to 10000	< 100	CC(C)(C)C(=O)n1nc(-c2cc[nH]c(=O)c2)cc1NCc1ccc(Cl)s1 [Entry 8, 4-(5-[(5-chlorothiophen-2-yl)methyl]amino-1-(2,2-dimethylpropanoyl)-1H-pyrazol-3-yl)-1,2-dihydropyridin-2-one]
1000 to 10000		CC(C)(C)C(=O)n1nc(-c2cccc(=O)[nH]2)cc1NCc1ccc(Cl)s1 [Entry 43, 6-(5-[(5-chlorothiophen-2-yl)methyl]amino-1-(2,2-dimethylpropanoyl)-1H-pyrazol-3-yl)-1,2-dihydropyridin-2-one]
> 100000		CC(C)(C)C(=O)n1nc(-c2cccc(=O)n2CC(=O)N2CCOCC2)cc1NCc1ccc(Cl)s1 [Entry 45, 6-(5-[(5-chlorothiophen-2-yl)methyl]amino-1-(2,2-dimethylpropanoyl)-1H-pyrazol-3-yl)-1-[2-(morpholin-4-yl)-2-oxoethyl]-1,2-dihydropyridin-2-one]
> 100000		CC(C)(C)C(=O)n1nc(-c2ccc(=O)n(CC(=O)N3CCOCC3)c2)cc1NCc1ccc(Cl)s1 [Entry 32, 5-(5-[(5-chlorothiophen-2-yl)methyl]amino-1-(2,2-dimethylpropanoyl)-1H-pyrazol-3-yl)-1-[2-(morpholin-4-yl)-2-oxoethyl]-1,2-dihydropyridin-2-one]

Source: patent publication US10189810B2, “Pyrazolyl-substituted pyridone compounds as serine protease inhibitors” (VERSEON CORPORATION, priority 2014, dated 2019)
